Experimental data taken from US20080031893A1 (Metaproteomics, LLC, priority 2006, published 2008).
Marks after values point to notes of the source that are not given here.

Tests used:
3T3-L1 adipocytes [1] = assay: Adiponectin secretion in LPS/3T3-L1 adipocytes; type: cell-based, murine; settings: for adiponectin secretion: LPS, any dose tested; for % Stimulation (maximum) of adiponectin secretion: 0.625 μg/ml
3T3-L1 adipocytes [2] = assay: Adiponectin secretion from insulin-resistant 3T3-L1 adipocytes; type: cell-based, murine
Protocol: 3T3-L1 cells were seeded at an initial density of 1×10^4 cells/cm^2 in 96-well plates. For two days, the cells were allowed grow to reach confluence. Following confluence, the cells were forced to differentiate into adipocytes by the addition of differentiation medium; this medium consisted of (1) 10% FBS/DMEM (high glucose); (2) 0.5 mM methylisobutylxanthine; (3) 0.5 μM dexamethasone and (4) 10 μg/ml insulin (MDI medium). From Day 3 through Day 5, the medium was changed to post-differentiation medium consisting of 10 μg/ml insulin in 10% FBS/DMEM.
Briefly, on Day 6, cells were maintained in serum-free media containing 0.5% bovine serum albumin (BSA) for three hours and then treated with 1 μg insulin/ml plus solvent or insulin plus test material. […] Twenty-four hours later, the supernatant medium was sampled for adiponectin determination.
Adiponectin Assay—The adiponectin secreted into the medium was quantified using the Mouse Adiponectin Quantikine® Immunoassay kit with no modifications (R&D Systems, Minneapolis, Minn.).
Statistical Calculations and Interpretation—All assays were preformed in duplicate. […] Differences between the doses were determined using the student's t-test without correction for multiple comparisons; the nominal five percent probability of a type I error was selected. […]

3T3-L1 adipocytes [3] = assay: IL-6 secretion from TNFα-treated 3T3-L1 adipocytes; type: cell-based, murine; settings: 10 ng TNFα/ml
Protocol: Interleukin-6 Assay—The IL-6 secreted into the medium was quantified using the Quantikine® Mouse IL-6 Immunoassay kit with no modifications (R&D Systems, Minneapolis, Minn.). […] All supernatant media samples were assayed undiluted.
Statistical Calculations and Interpretation—All assays were preformed in duplicate. […] Differences among the doses were determined using the student's t-test without correction for multiple comparisons; the nominal five percent probability of a type I error (one-tail) was selected.

3T3-L1 adipocytes [4] = assay: Adiponectin secretion from TNFα-treated 3T3-L1 adipocytes; type: cell-based, murine
Protocol: For two days, the cells were allowed grow to reach confluence. […] (3) 0.5 μM dexamethasone and (4) 10 μg/ml insulin (MDI medium). […] Adiponectin Assay—The adiponectin secreted into the medium was quantified using the Mouse Adiponectin Quantikine® Immunoassay kit with no modifications (R&D Systems, Minneapolis, Minn.). […] Statistical Calculations and Interpretation—All assays were preformed in duplicate. […] Differences among the doses and test agents were determined using the Student's t-test without correction for multiple comparisons; the nominal five percent probability of a type I error was selected.

3T3-L1 adipocytes [5] = assay: IL-6 secretion in LPS/3T3-L1 adipocytes; type: cell-based, murine; settings: 100 ng LPS/ml
NF-kBp65 = assay: Nuclear translocation of NF-kBp65 in TNFα-treated 3T3-L1 adipocytes; type: cell-based, murine; settings: three or 24 hours following TNFα
Protocol: Cell Culture and Treatment—Following differentiation 3T3-L1 adipocytes were maintained in post-differentiation medium for an additional 40 days. […] Hops derivatives and the positive control pioglitazone were tested at concentrations of 2.5, and 5.0 μg/ml. Test materials were added 1 hour prior to and nuclear extracts were prepared three and 24 hours following treatment with TNFα.
ELISA—3T3-L1 adipocytes were maintained in growth media for 40 days following differentiation. Nuclear NF-kBp65 was determined using the TransAM™ NF-kB kit from Active Motif (Carlsbad, Calif.) was used with no modifications. Jurkat nuclear extracts provided in the kit were derived from cells cultured in medium supplemented with 50 ng/ml TPA (phorbol, 12-myristate, 13 acetate) and 0.5 μM calcium ionophore A23187 for two hours at 37° C. immediately prior to harvesting.
Protein assay—Nuclear protein was quantified using the Active Motif Fluorescent Protein Quantification Kit.
Statistical Analysis—Comparisons were performed using a one-tailed Student's t-test. The probability of a type I error was set at the nominal five percent level.

3T3-L1 adipocytes [6] = assay: Lipogenesis in 3T3-L1 adipocytes (Oil Red O / BODIPY); type: cell-based, murine; settings: for adipogenic response of hops compounds: 10, 5, 4 or 2 μg/ml, spent hops 50 μg/ml
Protocol: Prior to experiments, cells were cultured in DMEM containing 10% FBS-HI added 50 units penicillin/ml and 50 μg streptomycin/ml, and maintained in log phase prior to experimental setup. Cells were grown in a 5% CO2 humidified incubator at 37° C. Components of the pre-confluent medium included (1) 10% FBS/DMEM containing 4.5 g glucose/L; (2) 50 U/ml penicillin; and (3) 50 μg/ml streptomycin. Growth medium was made by adding 50 ml of heat inactivated FBS and 5 ml of penicillin/streptomycin to 500 ml DMEM. This medium was stored at 4° C. Before use, the medium was warmed to 37° C. in a water bath.
3T3-T1 cells were seeded at an initial density of 6×10^4 cells/cm^2 in 24-well plates. For two days, the cells were allowed grow to reach confluence. Following confluence, the cells were forced to differentiate into adipocytes by the addition of differentiation medium; this medium consisted of (1) 10% FBS/DMEM (high glucose); (2) 0.5 mM methylisobutylxanthine; (3) 0.5 μM dexamethasone and (4) 10 μg/ml insulin (MDI medium). After three days, the medium was changed to post-differentiation medium consisting of 10 μg/ml insulin in 10% FBS/DMEM.
AcE was partially dissolved in dimethyl sulfoxide (DMSO) and added to the culture medium to achieve a concentration of 50 μg/ml at Day 0 of differentiation and throughout the maturation phase (Days 6 or 7 (D6/7)). Whenever fresh media were added, fresh test material was also added. DMSO was chosen for its polarity and the fact that it is miscible with the aqueous cell culture media.
Oil Red O Staining—Triglyceride content of D6/D7-differentiated 3T3-L1 cells was estimated with Oil Red O according to the method of Kasturi and Joshi [Kasturi, R. and Joshi, V. C. […] Monolayer cells were washed with PBS (phosphate buffered saline, Mediatech) and fixed with 10% formaldehyde for ten minutes. Fixed cells were stained with an Oil Red O working solution of three parts 0.6% Oil Red O/isopropanol stock solution and two parts water for one hour and the excess stain was washed once with water. The resulting stained oil droplets were extracted from the cells with isopropanol and quantified by spectrophotometric analysis at 540 nm (MEL312e BIO-KINETICS READER, Bio-Tek Instruments, Winooski, Vt.).
Briefly, media were removed and cells were washed once with non-sterile PBS. A stock 1000× BODIPY/DMSO solution was made by dissolving 1 mg BODIPY in 1 ml DMSO (1,000 μg BODIPY/ml). […] After 15 min on an orbital shaker (DS-500, VWR Scientific Products, South Plainfield, N.J.) at ambient temperature, the cells were washed with 100 μl PBS followed by the addition of 100 μl PBS for reading for spectrofluorometric determination of BODIPY incorporation into the cells. […]

[7] = Non-fasting serum glucose and insulin in db/db diabetic mice; type: in vivo, mouse; settings: three consecutive days, gavage
Protocol: The Model—Male, C57BLKS/J m^+/m^+Lepr^db (db/db) mice were used to assess the potential of the test materials to reduce fasting serum glucose or insulin concentrations. This strain of mice is resistant to leptin by virtue of the absence of a functioning leptin receptor.
Testing Procedure—Test substances were administered daily by gavage in 0.2% Tween-80. Serum was collected from the retroorbital sinus before the initial dose and ninety minutes after the third and final dose. Non-fasting serum glucose was determined enzymatically by the mutarotase/glucose oxidase method and serum insulin was determined by a mouse specific ELISA.
The Model—Male, C57BLKS/J m+/m+ Leprdb (db/db) mice were used to assess the potential of the test materials to reduce fasting serum glucose or insulin concentrations. This strain of mice is resistant to leptin by virtue of the absence of a functioning leptin receptor.
Testing Procedure—Test substances were administered daily by gavage in 0.2% Tween-80. Serum was collected from the retroorbital sinus before the initial dose and ninety minutes after the fifth and final dose. Non-fasting serum glucose was determined enzymatically by the mutarotase/glucose oxidase method and serum insulin was determined by a mouse specific ELISA.

PI3K gamma = PI3K gamma (Homo sapiens, UniProt P48736); assay: KinaseProfiler Assay; type: biochemical; settings: 50 μg/ml
PI3K gamma, sequence (P48736 whole entry): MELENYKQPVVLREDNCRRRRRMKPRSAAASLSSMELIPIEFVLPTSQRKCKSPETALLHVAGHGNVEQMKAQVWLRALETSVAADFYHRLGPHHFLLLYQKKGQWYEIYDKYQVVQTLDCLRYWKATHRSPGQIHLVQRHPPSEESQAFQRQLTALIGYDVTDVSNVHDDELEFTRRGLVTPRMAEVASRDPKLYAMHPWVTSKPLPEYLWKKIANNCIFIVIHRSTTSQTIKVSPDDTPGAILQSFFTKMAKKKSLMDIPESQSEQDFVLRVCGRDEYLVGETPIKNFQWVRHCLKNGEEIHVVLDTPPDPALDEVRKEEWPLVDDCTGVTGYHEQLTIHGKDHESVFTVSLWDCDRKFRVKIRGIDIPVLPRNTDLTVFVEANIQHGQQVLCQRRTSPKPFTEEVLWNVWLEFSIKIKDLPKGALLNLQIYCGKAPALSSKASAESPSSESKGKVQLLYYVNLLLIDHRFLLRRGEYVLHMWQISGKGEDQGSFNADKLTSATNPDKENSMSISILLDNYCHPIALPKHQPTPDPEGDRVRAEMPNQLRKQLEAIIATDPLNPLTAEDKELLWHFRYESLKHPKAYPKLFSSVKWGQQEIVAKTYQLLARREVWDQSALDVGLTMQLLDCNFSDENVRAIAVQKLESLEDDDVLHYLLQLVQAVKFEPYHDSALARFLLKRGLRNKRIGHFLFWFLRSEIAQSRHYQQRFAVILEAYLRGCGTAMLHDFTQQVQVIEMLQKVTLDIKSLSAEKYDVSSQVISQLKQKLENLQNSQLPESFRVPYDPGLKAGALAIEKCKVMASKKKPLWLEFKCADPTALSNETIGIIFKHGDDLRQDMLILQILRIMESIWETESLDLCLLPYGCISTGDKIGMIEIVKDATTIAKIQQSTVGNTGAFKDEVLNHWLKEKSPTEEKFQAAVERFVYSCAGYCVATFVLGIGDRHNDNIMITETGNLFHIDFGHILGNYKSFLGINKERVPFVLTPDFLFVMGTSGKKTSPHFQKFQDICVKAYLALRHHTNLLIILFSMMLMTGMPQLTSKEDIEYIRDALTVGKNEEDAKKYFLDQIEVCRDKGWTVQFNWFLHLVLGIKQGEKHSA

[8] = system: A549 pulmonary epithelial cells; assay: PGE2 biosynthesis in A549 cells stimulated by mite dust allergen; type: cell-based, human; settings: 10 μg/ml, mite allergen 1000 ng/ml, 18 h
Protocol: The filtrate was termed mite dust allergen and used to test for induction of PGE2 biosynthesis in A549 pulmonary epithelial cells.
Mite allergen was added to the culture medium to achieve a final concentration of 1000 ng/ml. Eighteen hours later, the media were sampled for PGE2 determination.

[9] = 10 ng TNFα/ml, listed as indomethacin

Q: Which adiponectin secretion (3T3-L1 adipocytes [1]) does the source give for `CC(=O)Oc1ccccc1C(=O)O` [Aspirin] here?
A: failed to induce adiponectin secretion

Q: With `CC(C)CCC1=C(O)C(C(=O)C(C)C)=C(O)C(CCC(C)C)(CCC(C)C)C1=O` [Hexahydrocolupulone (HHCL)] as the compound, how does the Adiponectin/IL-6 (3T3-L1 adipocytes [2]; 50.0 μg/ml, ratio of indices) read?
A: 0.60#

Q: With `COc1ccc2c(c1)c(CC(=O)O)c(C)n2C(=O)c1ccc(Cl)cc1` [Indomethacin, indomethacin] as the compound, how does the “IL-6 secretion in the presence of TNFα” value (3T3-L1 adipocytes [3]) read?
A: no anti-inflammatory effect

Q: What about the adiponectin secretion (3T3-L1 adipocytes [4]; 0.5 ng TNFα/ml, 50 μg/ml) of the same compound?
A: dose-dependant decrease in adiponectin secretion

Q: What about the “Concentration of maximum adiponectin secretion” value (3T3-L1 adipocytes [4]; 10 ng TNFα/ml) of the same compound?
A: 5.0 µg/mL

Q: What about the “Concentration of maximum adiponectin secretion” value (3T3-L1 adipocytes [4]; [9]) of the same compound?
A: 2.5 µg/mL

Q: And the “maximum increase of adiponectin secretion from TNFα solvent control” value (“maximum increase” for short) (3T3-L1 adipocytes [4]; [9])?
A: 94%

Q: And the Adiponectin/IL-6 (3T3-L1 adipocytes [4]; […], 10 ng TNFα/ml)?
A: 2.00*

Q: What about the “% Inhibition (maximum) of IL-6 secretion” value (3T3-L1 adipocytes [5]; 5.00 μg/ml) of the same compound?
A: 53* %

Q: Which “maximum increase” value (3T3-L1 adipocytes [4]; 10 ng TNFα/ml) does the source give for `CCc1ccc(CCOc2ccc(CC3SC(=O)NC3=O)cc2)nc1` (stereo not shown) [Pioglitazone] here?
A: 80%

Q: What about the “Adiponectin Index (maximum over four doses)” value (3T3-L1 adipocytes [4]; 10 ng TNFα/ml, Example 17) of the same compound?
A: 1.47

Q: And the “Adiponectin Index Observed” value (3T3-L1 adipocytes [4]; 1.0 μg/ml, indexed to TNFα control)?
A: 1.80

Q: And the “nuclear NF-kBp65” value (NF-kBp65)?
A: did not inhibit

Q: And the “IL-6 Index” value (3T3-L1 adipocytes [5]; 5.00 μg/ml (dose providing maximum inhibition))?
A: 0.37*

Q: What about the inhibition at 5 µg/mL (3T3-L1 adipocytes [5]; Mus musculus, 3T3-L1, 5.00 μg/ml, read-out: % Inhibition (maximum) of IL-6 secretion) of the same compound?
A: 63%

Q: For `Cc1c(C)c2c(c(C)c1O)CCC(C)(COc1ccc(CC3SC(=O)NC3=O)cc1)O2` (stereo not shown) [Troglitazone], which “maximum increase” value (3T3-L1 adipocytes [4]; 10 ng TNFα/ml) is on record?
A: 51%

Q: And the inhibition at 10 µg/mL (3T3-L1 adipocytes [5]; Mus musculus, 3T3-L1, 10.0 μg/ml, read-out: % Inhibition (maximum) of IL-6 secretion)?
A: 69%

Q: What about the “% Stimulation (maximum) of adiponectin secretion” value (3T3-L1 adipocytes [1]) of the same compound?
A: 15%

Q: For `CC(C)CCC1=C(O)C(C(=O)C(C)C)=C(O)C(CCC(C)C)(CCC(C)C)C1=O` [hexahydrocolupulone], which “adipogenic response of hops compounds” value (3T3-L1 adipocytes [6]) is on record?
A: failed to elicit a lipogenic response greater than the solvent controls

Q: And the “concentration for half maximal adiponectin secretion” value (3T3-L1 adipocytes [2]; Hofstee plot)?
A: 3.2 µg/mL

Q: Which inhibition at 0.625 µg/mL (3T3-L1 adipocytes [5]; Mus musculus, 3T3-L1, 0.625 μg/ml, read-out: % Inhibition (maximum) of IL-6 secretion) does the source give for `CC(C)Cc1ccc(C(C)C(=O)O)cc1` (stereo not shown) [ibuprofen] here?
A: 54%

Q: What about the “% Stimulation (maximum) of adiponectin secretion” value (3T3-L1 adipocytes [1]) of the same compound?
A: 22%

Q: Which results are given for `CN(C)C(=N)N=C(N)N` [metformin, Metformin]?
A: lipogenic index (3T3-L1 adipocytes [6]; 50 μg test material/ml, observed): 0.79; serum glucose relative to controls [7]: decreased both serum glucose and insulin concentrations

Q: Which “IL-6 Index” value (3T3-L1 adipocytes [5]; 50.0 μg/ml (dose providing maximum inhibition)) does the source give for `O=C(O)c1ccccc1O` [salicylic acid] here?
A: 0.52*

Q: What about the inhibition at 50 µg/mL (3T3-L1 adipocytes [5]; Mus musculus, 3T3-L1, 50.0 μg/ml, read-out: % Inhibition (maximum) of IL-6 secretion) of the same compound?
A: 48%

Q: What about the adiponectin secretion (3T3-L1 adipocytes [1]) of the same compound?
A: failed to induce adiponectin secretion

Q: For `COc1cc(O)c(CC=C(C)C)c(O)c1C(=O)/C=C/c1ccc(O)cc1` [xanthohumol], which “adipogenic response of hops compounds” value (3T3-L1 adipocytes [6]) is on record?
A: comparable to indomethacin and troglitazone

Q: What about the PI3K isoform preference (PI3K gamma) of the same compound?
A: more inhibitory to PI3K-γ than to PI3K-β or PI3K-δ

Q: Which results are given for Beta acids?
A: adipogenic response of hops compounds (3T3-L1 adipocytes [6]): comparable to indomethacin and troglitazone; Percent PGE2 Inhibition [8]: 83%
